Marks after values point to notes of the source that are not given here.
Key:
isolated rat heart = assay: Isolated rat heart infarction study after oral treatment (cardioprotective activity); format: in vivo, Wistar rats; details: for Infarct size, % of control: 20 mg/kg p.o. daily, after 2 weeks of treatment (method: 8 weeks), hearts excised 24 h after last dose, 60 min occlusion, 150 min reperfusion, mean ± s.e.m. of 9-10 animals; for Therapeutical (cardioprotective) effect, in words / Decrease of infarct size: 20 mg/kg p.o., isolated rat heart infarction model; for Decrease of infarct size: versus control
Method: Fifty male, 10 weeks old Wistar rats weighing 200-250 g were housed under standard conditions (21-23° C., 12 h light-dark cycle) with unlimited access to food (R3 diet, Lactamin AB, Sweden) and water.
(§1) Rats were adapted to local conditions for two weeks before the start of treatment. Meldonium dihydrate at a dose of 20 mg/kg, gamma-butyrobetaine at a dose of 20 mg/kg and 4-[(chloromethyl)(dimethyl) ammonio]butanoate at dose of 20 mg/kg were administered p.o. daily for 8 weeks. Control rats received water.
The isolated rat heart experiment was performed essentially as described earlier (Liepinsh et al., J. Cardiovasc. Pharmacol. 2006; 48(6):314-9). Twenty-four hours after the last drug administration hearts were excised and retrogradely perfused via the aorta at a constant pressure with oxygenated Krebs-Henseleit buffer at 37° C. The heart rate, left ventricle end-diastolic pressure and left ventricle developed pressure were continuously recorded. Coronary flow was measured using an ultrasound flow detector (HSE) and the PowerLab 8/30 system from ADInstruments. The hearts were perfused for 20 min to stabilize the hemodynamic functions and then occlusion was performed for 60 min by constricting threads through a plastic tube. Successful occlusion was confirmed by a coronary flow decrease of about 40 percent. Reperfusion was achieved by releasing the threads. At the end of the 150-min reperfusion period, the risk zone was delineated with 0.1% methylene blue. The hearts were then sectioned transversely from the apex to the base in five slices 2 mm in thickness and incubated in 1% triphenyltetrazolium chloride in phosphate buffer (pH 7.4, 37° C.) for 10 min to stain viable tissue red and necrotic tissue white. Computerized planemetric analysis of Sony A900 photographs was performed using Image-Pro Plus 6.3 software to determine the area at risk and area of necrosis expressed as a % of the left ventricle. The obtained values were then used to calculate the infarct size (IS) as a % of risk area according to the formula: Infarct Size=Area of Necrosis/Area at Risk×100%. Effects in Isolated Rat Heart Infarction Model
The anti-infarction effect of examined substances was investigated in an isolated rat heart infarction model. During occlusion of left coronary artery, the coronary flow in all experimental groups was decreased for 40% (from 11 ml/min to 7 ml/min). Moreover, the drop of developed left ventricular pressure for 50% was observed. […] In reperfusion stage, coronary flow, developed left ventricular pressure, ±dp/dt values were recovered till about 80% of control level. There were no significant differences between control and treatment groups.
Effects of Meldonium dihydrate (20 mg/kg), gamma-butyrobetaine (20 mg/kg) and 4-[(chloromethyl)(dimethyl) ammonio]butanoate (20 mg/kg) after 2 weeks of treatment on infarct size in the isolated rat heart infarction experiment are presented in Table 1.
as §1, with “3-carboxy-N-(2-chloroethyl)-N,N-dimethylpropan-1-aminium chloride” for “4-[(chloromethyl)(dimethyl) ammonio]butanoate”
Effects of Meldonium dihydrate (20 mg/kg), gamma-butyrobetaine (20 mg/kg) and 3-carboxy-N-(2-chloroethyl)-N,N-dimethylpropan-1-aminium chloride (20 mg/kg) after 2 weeks of treatment on infarct size in the isolated rat heart infarction experiment are presented in Table 2.
The same experimental conditions as above were used for testing 3-carboxy-N-(2-fluoroethyl)-N,N-dimethylpropan-1-aminium chloride.
Effects of Meldonium dihydrate (20 mg/kg), gamma-butyrobetaine (20 mg/kg) and 3-carboxy-N-(2-fluoroethyl)-N,N-dimethylpropan-1-aminium chloride (20 mg/kg) after 2 weeks of treatment on infarct size in the isolated rat heart infarction experiment are presented in Table 3.

[1] = s.c.; cited from earlier work

| Compound | Infarct size, % of control (isolated rat heart) | Therapeutical (cardioprotective) effect, in words (isolated rat heart) | Decrease of infarct size (isolated rat heart) | melting point | LD50 [1] |
| --- | --- | --- | --- | --- | --- |
| C[N+](C)(CCF)CCCC(=O)O.[Cl-] [3-carboxy-N-(2-fluoroethyl)-N,N-dimethylpropan-1-aminium chloride] | 65.5 ± 9.1*^,#,$ % of control | best therapeutical effect | 34.5% | – | – |
| C[N+](C)(CCCl)CCCC(=O)O.[Cl-] [3-carboxy-N-(2-chloroethyl)-N,N-dimethylpropan-1-aminium chloride] | 59.9 ± 7.6*^,#,$ % of control | best therapeutical effect | 41.1% | 130 °C | – |
| C[N+](C)(C)NCCC(=O)[O-] [Meldonium dihydrate, 3-(2,2,2-Trimethylhydrazinium) propionate dihydrate, reference compound] | 117.9 ± 7.9 % of control | – | – | – | – |
| C[N+](C)(CCl)CCCC(=O)[O-] [4-[(chloromethyl)(dimethyl)ammonio]butanoate] | 65.2 ± 6.8*^,#,$ % of control | best therapeutical effect | 34.8% | 100.5 to 101 °C | – |
| C[N+](C)(C)CCCC(=O)[O-] [Gamma-butyrobetaine, γ-Butyrobetaine, reference compound] | 87.6 ± 11.4 % of control | – | ~12.4% | – | > 7000 mg/kg |
